Experimental data published in patent US20080021098A1, “Antifungal Compositions” (GIVAUDAN SA, priority 2004, published 2008).

Test system: Cladosporium sphaerospermum IK-65 on cotton fabrics / Cladosporium sphaerospermum MTL on plaster
Test: Minimal headspace level required for antifungal activity (olfactometer, constant fragrance vapour)
Assay type: cell-based
Conditions: test phase of 7 days; for Effect on fungal growth: at the headspace level of the same line; for Headspace level required to inhibit fungal growth: constant vapour concentration
Description: In order to determine the effective level of the anti-mould fragrance compounds needed for anti-mould vapour phase activity, an olfactometer is constructed that allows delivery to the fungal growth substrate of a constant concentration of fragrance vapour. A stream of nitrogen is saturated with the fragrance component, and the fragrance-saturated gas is then diluted with water saturated air at different ratios. This mixture is then blown continuously through enclosed acryl-glass boxes and the headspace is measured by sampling 1 ml gas sample with subsequent analysis in the gas chromatograph. Once a steady state in the acryl-glass box is reached (usually within 1-3 days), a fungal inoculum on a relevant substrate is added to the box, and fungal growth during a test phase of 7 days is evaluated.
The following relevant substrate—inoculum combinations were used: • (a) White pieces of cotton fabrics were soaked with a solution of potato dextrose broth diluted to a final concentration of 5% containing spores from the fungal test strain Cladosporium sphaerospermum IK-65 diluted to a final density corresponding to an optical density at 600 nm of 0.01. The test strain IK 65 was isolated from moist fabrics having fungal off odors, and it is a typical strain growing on fabrics as substrate. • (b) White plaster used for fixing ceramic tiles in bathrooms was spread homogenously on the back of 35 mm Petri dishes. On each Petri dish, 160 μl of a fungal inoculum was evenly spread. It contained potato dextrose broth diluted to a final concentration of 50% and spores from the fungal test strain Cladosporium sphaerospermum MTL diluted to a final density corresponding to an optical density at 600 nm of 0.004. The test strain MTL was isolated from a bathroom with vigorous mould growth on the plaster between tiles.

SMILES	Effect on fungal growth	Headspace level required to inhibit fungal growth [µg/L]
CC1=CC(C)C(C=O)CC1 (stereo not shown) [1-carboxaldehyde-2,4-dimethyl-cyclohex-3-en]	over 90% inhibition	21
COc1ccc(CC(C)C=O)cc1 (stereo not shown) [3-(4-methoxyphenyl)-2-methyl-propanal]	complete inhibition	1.9
CC1=CCC(C(C)CCO)CC1 (stereo not shown) [3-(4-methyl-3-cyclohexenyl)-butanol]	80% inhibition	4.5
COc1ccc(C=O)cc1 [4-methoxy-benzaldehyde]	over 90% inhibition	7.5
CC1(C)CCCC2=C1CC(C=O)CC2 (stereo not shown) [8,8-Dimethyl-1,2,3,4,5,6,7,8-octahydro-naphthalene-2-carbaldehyde]	complete inhibition	4.9
